Molecules are shown by their SMILES.

Consider one compound from patent US20150141438A1, “METHODS FOR DELAYING OR PREVENTING THE ONSET OF TYPE 1 DIABETES” (Pharmacyclics, Inc., priority 2013, published 2015).

The nature of test [1]: Example 3: prediabetic individual administered ibrutinib and cyclosporine A. Type of test: in vivo. The note with it: individual with impaired fasting glycemia and impaired glucose tolerance; ibrutinib administered with cyclosporine A. The procedure:
An individual presents with impaired fasting glycemia and impaired glucose tolerance. The individual is determined to be prediabetic.

Test [2] has as its system anti-insulin B cells. Put plainly: BTK inhibitor treatment of 125Tg/NOD mice (Ibrutinib chow); B cell subsets assessed by flow cytometry in freshly isolated organs. Type of test: in vivo, mouse. The procedure:
After 5-10 weeks, spleen, draining pancreatic lymph nodes, and pancreas were harvested and flow cytometry was used to analyze B cell subsets. […] Mice were 12-13 weeks old at time of analysis.
B cell subsets were assessed by flow cytometry in freshly isolated organs as outlined below.
BM was eluted from long bones, and spleens and pancreatic draining lymph nodes (PLN) were macerated with HBSS (Invitrogen) plus 10% FBS (HyClone). Red blood cells were lysed using Tris-NH4Cl. Freshly isolated pancreata were digested with 3 mL of 1 mg/mL collagenase P diluted in HBSS for 30 min at 37° C., then tissue was disrupted using an 18-gauge needle. Ice cold HBSS plus 10% FBS was immediately added to inhibit collagenase activity. Cells were directly analyzed by flow cytometry. Flow cytometry Ab reagents were reactive with B220 (6B2), IgM^a (DS-1), CD19 (1D3), CD21 (7G6), CD23 (B3B4), CD93 (AA4.1), or IgM chain-specific) (Life Technologies). Biotin N-hydroxysuccinimide ester (Sigma) was used to biotinylate human insulin (Sigma) at pH 8.0 in bicine buffer. Streptavidin reagents (BD Biosciences) were used to detect biotinylated reagents. 7AAD (BD Biosciences) was used to identify dead cells. Sample acquisition was performed using an LSR II flow cytometer (BD Biosciences) and FlowJo software (Treestar) was used for analysis.
BTK is a complex protein with adapter as well as kinase functions that have independent effects on various aspects of B cell development and function. […] Flow cytometry analysis of freshly isolated splenocytes was used to identify B cell subsets as in FIG. 3.
A general note: In flow cytometry, cells or beads pass a laser one at a time.

Where [3] appears, read: spleen, Ibrutinib vs. placebo chow, 125Tg/NOD mice.

`C=CC(=O)N1CCC[C@@H](n2nc(-c3ccc(Oc4ccccc4)cc3)c3c(N)ncnc32)C1` [Ibrutinib, (R)-1-(3-(4-amino-3-(4-phenoxyphenyl)-1H-pyrazolo[3,4-d]pyrimidin-1-yl)piperidin-1-yl)prop-2-en-1-one]: in test [1], the “development of Type 1 Diabetes” value is recorded as “does not develop Type 1 Diabetes”. Moreover, in test [2] (125Tg/NOD mice treated with Ibrutinib), the “trafficking of anti-insulin B lymphocytes to pancreatic draining lymph nodes or pancreas” value is reported as “does not block their trafficking to pancreatic draining lymph nodes or pancreas”. Also, the “non-B lymphocyte numbers in spleen” value in test [2] (125Tg/NOD mice, Ibrutinib chow 5-10 weeks, 38 mg/kg per day, placebo 28.6±8.3, no difference) is on record as 25.1±8.5 ×10^6. For the same compound, in test [2] (125Tg/NOD mice, Ibrutinib chow 5-10 weeks, average 38 mg/kg per day, placebo 22.2±5.8, p<0.001), the “number of B lymphocytes (B220+ IgM+ live lymphocytes) in spleen” value is 10.1±2.8 ×10^6. Further, in test [2] (125Tg/NOD mice, Ibrutinib chow 5-10 weeks, placebo 17±3, p=0.51, no difference), the “T2 B cell subset numbers in the spleen” value was 49±76 ×10^4. The “pre-marginal zone B cell numbers in the spleen” value in test [2] (125Tg/NOD mice, Ibrutinib chow 5-10 weeks, placebo 43±6, p=0.0015) is on record as 17±5 ×10^4. Besides, the “follicular B cell numbers in the spleen” value in test [2] (125Tg/NOD mice, Ibrutinib chow 5-10 weeks, placebo 345±38, p<0.001) was 41±37 ×10^4. Further, the “marginal zone B cell numbers in the spleen” value in test [2] (125Tg/NOD mice, Ibrutinib chow 5-10 weeks, placebo 1283±217, p=0.002) was 443±164 ×10^4. Moreover, the “number of B cells in the pancreas” value in test [2] (125Tg/NOD mice, Ibrutinib chow, placebo 5.2±7.7, p=0.36, no significant difference) was 0.66±0.80 ×10^4. For the same compound, the “number of B cells in the pancreatic draining lymph nodes” value in test [2] (125Tg/NOD mice, Ibrutinib chow, placebo 21±8, p=0.49, no significant difference) is recorded as 26±9 ×10^4. For the same compound, in test [2] (setting [3]), the “reduction in follicular B cell numbers” value is 88%, the “reduction in marginal zone B cell numbers” value stood at 65% and the “reduction in pre-marginal zone B cell numbers” value is listed as 60%.
